Test results as given in patent US20160051704A1, “MOLECULAR IMAGING PROBES FOR LUNG CANCER INTRAOPERATIVE GUIDANCE” (H. Lee Moffitt Cancer Center and Research Institute, Inc., priority 2013, published 2016).

Tests used:
[1] = biological target: δ-opioid receptor; conditions: literature value; cited from earlier work
[2] = literature statement; cited from earlier work
[3] = system: HCT-116/RFP (δOR negative) and HCT-116/δOR tumors; experiment: Intravital fluorescence microscopy, dorsal skin-fold window chamber tumor xenograft; assay type: in vivo, mice; conditions: 45 nmol/kg i.v.; HCT-116/RFP (δOR negative) tumor; post tail vein injection
Procedure: (§1) The inventors evaluated a synthetic peptide δ-opioid receptor (δOR) antagonist Dmt-Tic (FIG. 8) conjugated to two different fluorescent dyes, Cy5 and IR800CW, as further discussed below. The pharmacokinetics (PK) of Dmt-Tic-Cy5 was evaluated in a subcutaneous xenograft model using HCT-116 cells (δOR−) and HCT-116 cells that were engineered to overexpress the δOR (δOR+). Tumor uptake of Dmt-Tic-Cy5 was also studied by intravital fluorescence microscopy using a dorsal skin-fold window chamber tumor xenograft model.
Mice containing dorsal skin-fold window chamber tumor xenografts were injected with 45 nmol/kg Dmt-Tic-Cy5 i.v. (FIG. 12) Images were acquired continuously for 15 minutes post-injection and at various time points after. […] Dmt-Tic-Cy5 is taken up and extravasates from the rat GFP vessels within seconds post tail vein injection (top). Dmt-Tic-Cy5 is cleared by 33 minutes post tail vein injection (bottom). Light gray represents the RFP signal from the tumor cells, medium gray represents the GFP signal from the rat microvessels, and dark gray is the Cy5 signal from the ligand. […] Shown are the Cy5 signal from the ligand in dark gray (left images) and overlays of the Cy5 signal and white light channels (right images) pre-injection and 25 minutes, 45 minutes, 60 minutes, 1 hour 25 minutes, and 24 hours post-injection.

[4] = biological target: T1, delta opioid receptor (δOR) (Homo sapiens, UniProt P41143); experiment: Lanthanide time-resolved fluorescence (TRF) competitive binding assay on HCT-116/δOR whole cells against Eu-DTPA-DPLCE; conditions: HCT-116 cells engineered to express δOR; competed ligand Eu-labeled DPLCE; read-out: Ki (δOR binding affinity)
T1 construct: pcDNA-δOR15 vector containing a truncated δOR lacking the final 15 C-terminal amino acids; expressed in transfected cells
Source text: The inventors have previously generated an engineered cell line that stably overexpresses the δO R based on the colorectal cancer cell line HCT-116. […] For the LTRF competition binding assays with Dmt-Tic-IR800, the inventors used the engineered HCT-116/δOR cell line since it has a high number of receptors on the cell surface.
To determine binding affinity the inventors used a lanthanide time-resolved fluorescence (LTRF) competitive binding assay as described previously.
For the competitive binding assays, HCT-116/δOR cells were plated in black wall/white bottom 96-well plates (Perkin Elmer, Cat. #6005060) at a density of 20,000 cells per well and were allowed to grow for 3 days.
On the day of the experiment, media were aspirated from all wells and then the cells were rinsed with phosphate buffered saline (PBS) (100 μL/well). […] Ligands were diluted in binding assay buffer (Modified Eagles medium [MEM] (Gibco, Cat. #61100-087), 1 mM 1,10-phenanthroline, 200 mg/L bacitracin, 0.5 mg/L leupeptin, 26 mM NaHCO3, 25 mM HEPES, 0.2% w/v BSA) and samples were tested in octuplicate.
Cells were incubated in the presence of ligands for 1 h at 37° C. and 5% CO2. Following the incubation, cells were washed three times with wash buffer (50 mM Tris-HCl, 0.2% w/v BSA, 30 mM NaCl) (200 μL/well).

[5] = biological target: T2, δOR (Mus musculus, UniProt P32300); experiment: Mouse-isolated vas deferens (MVD) assay against δ-agonist DPDPE; conditions: n=8, read-out: Ke (inhibitory potency)
T2 construct: from tissue; host or cells: mouse isolated vas deferens
Source text: (Kramer, T. H.; Davis, P.; Hruby, V. J.; Burks, T. F.; Porreca, F. J. Pharmacol. Exp. Ther. 1993, 266, 577-584)

[6] = In vivo pharmacokinetic (PK) and biodistribution (BD) profiles of fluorescent conjugates
[7] = system: HCT-116/δOR (δOR+) tumor relative to HCT-116 (δOR−) tumor; assay type: in vivo, mice
Procedure: as §1
For PK experiments, mice were injected with 4.5 nmol/kg Dmt-Tic-Cy5 i.v. and images acquired at various time points from 0-168 h ([…]). Graphs 9B and 9C depict the mean fluorescent signal obtained from the δOR− tumors and δOR+ tumors over a time course of 0-168 h. Graph […] depicts the mean fold of enhancement (δOR+ tumor signal/δOR− tumor signal) over time. The tumor signals were quantified, averaged (n≧3 for each time point), and plotted over time. The graphs 9B and 9C show maximum probe uptake in the δOR+ tumor at 3 h. FIG. 9D depicts the maximum signal fold of enhancement (27±9 s.d.) at 18 h in δOR+ relative to δOR− tumors.
Mice then were tail vein injected with 10 μg of ligand 1 and images were acquired at different times post-injection using a VersArray 1300B cooled CCD camera, a filtered fiberoptic light source and a tunable emission filter (CRI, Inc.). After 15 min post-injection, the fluorescence intensity maps indicated systemic presence of the compound with high intensity throughout the animal (not shown). […] Histograms were generated for each ROI, and mean fluorescence intensities were determined for each time point. […]
Initial experiments were performed using the HCT-116 parental cell line and HCT-116/δOR engineered cells in a bilateral flank subcutaneous xenograft model in mice. […] Mice were injected intravenously with the designated concentrations of Dmt-Tic-IR800 and fluorescence imaging was performed at various time points post-injection using the IVIS200 imaging system. […]

[8] = system: DMS-53 luc+ (DOR+) orthotopic lung tumor; experiment: Orthotopic model of lung cancer, fluorescence molecular tomography; assay type: in vivo, mice; conditions: 40 nmol/kg i.v.; 0 to 48 hours
Procedure: In the orthotopic model of lung cancer, the mice undergo a minor surgical procedure during which DMS-53 luc+ (DOR+) cells are injected directly in the left lung. The growth of the tumors is monitored using bioluminescence imaging (FIG. 33A). The PK of DORL-800 was studied in this model by injecting mice intravenously with DORL-800 (40 nmol/kg) and acquiring images at various time points from 0 to 48 hours using fluorescence molecular tomography (FIG. 33B). […] FIG. 34A depicts the structure of DORL-800. FIGS. 34B and C depict in vivo fluorescence imaging of endogenously expressing subcutaneous lung cancer xenograft tumors following administration of DORL-800. The presence of tumor was confirmed by computed tomography (CT) and histology. DORL-800 was studied for use in intraoperative guidance. FIG. 35 is an image of a SCID Hairless Outbred mouse (SHO) four weeks after DMS-53 luc+ (DOR+) cells were injected directly into the lung.

[9] = system: DMS-53 (δOR+) tumor relative to H1299 (δOR−) tumor; experiment: In vivo fluorescence imaging, bilateral subcutaneous lung cancer xenografts with endogenous δOR expression; parameters: species or system mice; conditions: for tumor selectivity in fluorescence image: 40 nmol/kg, 24 h post-administration
Procedure: Mice were subcutaneously injected with H1299 (δOR−) (12 million cells of 100 uL per injection) and DMS-53 (δOR+) (20 million cells at 100 uL per injection) cells in the left and right flanks, respectively. Tumors were grown for 3 weeks after subcutaneous injection.
A dose determination assay was performed to find the optimal concentration of Dmt-Tic-IR800 for further experiments. A higher concentration of the imaging agent in these experiments was needed due to the lower receptor number. Based on previous work with fluorescent imaging agents targeting different receptors in endogenous expressing cell lines, the inventors selected concentrations of 40 nmol/kg, 80 nmol/kg, and 160 nmol/kg. (Huynh A S, Chung W J, Cho H I, Moberg V E, Celis E, Morse D L, Vagner J. Novel Toll-like Receptor 2 Ligands for Targeted Pancreatic Cancer Imaging and Immunotherapy. J Med Chem. 2012; 55(22):9751-62) Fluorescence imaging was performed using the IVIS200 imaging system at various time points following intravenous administration of Dmt-Tic-IR800. For the bilateral flank subcutaneous xenograft model using endogenously expressing cells the optimal dose was 40 nmol/kg.
Fluorescence imaging of mice bearing H1299 (δOR−) cells in the left flank and DMS-53 (δOR+) cells in the right flank was performed using the Optix MX3 imaging system and a 40 nmol/kg dose of Dmt-Tic-IR800. […] FIG. 28 is a series of in vivo fluorescence images taken at different time points of mice bearing the xenograft tumors of lung cancer cell lines with positive endogenous expression (DMS-53) and non-expression (H1299). […] FIG. 30 is a series of graphs depicting the quantified values from in vivo imaging of the lung cancer xenograft tumors using the Optix MX-3 imaging instrument by ART. FIG. 31 is a series of representative images depicting the ex vivo fluorescence imaging of excised positive tumor, negative tumor, liver, lungs, kidneys and GI tract following intravenous administration of the Dmt-Tic-IR800 agent. […]
For dose determination assays on the Xenogen IVIS-200, images were analyzed using Living Image Software (v3.2). […]

T1 sequence (P41143 1-357 limits assumed): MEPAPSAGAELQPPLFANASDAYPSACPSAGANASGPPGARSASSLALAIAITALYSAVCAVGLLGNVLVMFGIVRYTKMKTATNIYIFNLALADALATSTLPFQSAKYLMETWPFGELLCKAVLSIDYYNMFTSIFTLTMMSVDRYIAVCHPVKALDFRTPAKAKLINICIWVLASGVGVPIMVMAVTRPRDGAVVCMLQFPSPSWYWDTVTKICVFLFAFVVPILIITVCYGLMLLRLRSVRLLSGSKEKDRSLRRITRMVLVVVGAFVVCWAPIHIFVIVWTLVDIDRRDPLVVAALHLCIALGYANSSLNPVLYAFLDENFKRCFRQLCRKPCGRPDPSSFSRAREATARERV
T2 sequence (P32300 whole entry): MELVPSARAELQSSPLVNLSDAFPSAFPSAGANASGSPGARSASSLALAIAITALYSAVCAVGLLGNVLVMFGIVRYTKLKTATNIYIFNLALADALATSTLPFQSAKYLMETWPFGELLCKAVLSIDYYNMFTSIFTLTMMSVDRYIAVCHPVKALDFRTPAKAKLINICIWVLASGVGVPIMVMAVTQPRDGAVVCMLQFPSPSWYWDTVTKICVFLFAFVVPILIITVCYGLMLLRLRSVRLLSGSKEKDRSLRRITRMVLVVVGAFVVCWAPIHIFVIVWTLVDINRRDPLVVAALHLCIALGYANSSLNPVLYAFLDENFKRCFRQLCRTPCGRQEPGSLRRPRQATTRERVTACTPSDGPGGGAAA

Compound: Dmt-Tic-Lys(Ac)-OH
- Ki [1]: 0.047 nM

Compound: CC1(C)C(/C=C/C2=C(Oc3ccc(S(=O)(=O)O)cc3)C(=C/C=C3/N(CCCCS(=O)(=O)O)c4ccc(S(=O)(=O)[O-])cc4C3(C)C)/CCC2)=[N+](CCCCCC(=O)O)c2ccc(S(=O)(=O)O)cc21 [Licor IR800CW]
- toxicity [2]: non-toxic

Compound: CC[N+]1=C(C=CC=CC=C2N(CCCCCC(=O)NCCN3C(=O)CC(SCCC(=O)NCCCC[C@H](NC(=O)[C@@H]4Cc5ccccc5CN4C(=O)[C@@H](N)Cc4c(C)cc(O)cc4C)C(=O)O)C3=O)c3ccc(S(=O)(=O)O)cc3C2(C)C)C(C)(C)c2cc(S(=O)(=O)[O-])ccc21 (stereo partly drawn) [ligand 1, Dmt-Tic-Lys(Cy5)-OH]
- time by which probe is cleared from δOR negative tumor [3]: ≤ 33 min
- Ki [4]: 3 nM
- Kb [5]: 0.037 nM
- blood-brain barrier passage [6]: does not cross the blood-brain barrier
- time of maximum probe uptake in the δOR+ tumor ([7]; 4.5 nmol/kg i.v., time course 0-168 h): 3 h

Compound: Cc1cc(O)cc(C)c1C[C@H](N)C(=O)N1Cc2ccccc2C[C@H]1C(=O)N[C@@H](CCCCNC(=O)CCSC1CC(=O)N(CCNC(=O)CCCCC[N+]2=C(/C=C/C3=C(Oc4ccc(S(=O)(=O)O)cc4)C(=C/C=C4/N(CCCCS(=O)(=O)O)c5ccc(S(=O)(=O)O)cc5C4(C)C)/CCC3)C(C)(C)c3cc(S(=O)(=O)[O-])ccc32)C1=O)C(=O)O (stereo partly drawn) [Dmt-Tic-IR800]
- accumulation in orthotopic tumor [8]: accumulated specifically in the tumor
- Ki [4]: 1.43 ± 0.24 nM
- blood-brain barrier passage [6]: does not cross the blood-brain barrier
- fold enhancement of the positive tumor (HCT-116/δOR) relative to the negative tumor (HCT-116) ([7]; 10 nmol/kg i.v., 24 hours post-injection, Optix MX3, n=4): ~7 fold
- tumor selectivity in fluorescence image ([7]; 10 nmol/kg, 24 h post-administration): selective for the δOR+ tumor
- fold enhancement of the positive tumor (DMS-53) relative to the negative tumor (H1299) ([9]; 40 nmol/kg i.v., 24 hours post-injection, Optix MX3, n=4): ~4 fold
- tumor selectivity in fluorescence image [9]: selective for the δOR+ tumor
- tumor selectivity in fluorescence image ([9]; listed as DORL-800): selective for the DOR+ tumor
